Experimental data reported in patent US20210353693A1, “Live Biotherapeutics to Treat and Prevent Lung Conditions” (priority 2018, published 2021).
≈ marks a conversion by molar mass, not a printed value. Where two headings read alike, the source gives them in different places.

Tested on: LH1
Experiment: ETEST antibiotic sensitivity of LH1
Type: cell-based
Details: for MIC: read-out: Susceptible to
[1] = ETEST, LH1, 24-hours anaerobic incubation

Compound	Resistant to [1] [µg/mL]	MIC [1] [µg/mL]	further results
O=C(O)c1cn(C2CC2)c2cc(N3CCNCC3)c(F)cc2c1=O [Ciprofloxacin), Ciprofloxacin]	32	–	–
CN[C@H](CC(C)C)C(=O)N[C@H]1C(=O)N[C@@H](CC(N)=O)C(=O)N[C@H]2C(=O)N[C@H]3C(=O)N[C@H](C(=O)N[C@H](C(=O)O)c4cc(O)cc(O)c4-c4cc3ccc4O)[C@H](O)c3ccc(c(Cl)c3)Oc3cc2cc(c3O[C@@H]2O[C@H](CO)[C@@H](O)[C@H](O)[C@H]2O[C@H]2C[C@](C)(N)[C@H](O)[C@H](C)O2)Oc2ccc(cc2Cl)[C@H]1O [Vancomycin]	–	1.5 (≈ 1.04 µM)	–
CC(=O)NC[C@H]1CN(c2ccc(N3CCOCC3)c(F)c2)C(=O)O1 [Linezolid]	–	0.5 (≈ 1.48 µM)	–
CN(C)[C@@H]1C(O)=C(C(N)=O)C(=O)[C@@]2(O)C(O)=C3C(=O)c4c(O)cccc4[C@@](C)(O)[C@H]3C[C@@H]12 [Tetracycline]	–	0.5 (≈ 1.13 µM)	–
CC[C@H]1OC(=O)[C@H](C)[C@@H](O[C@H]2C[C@@](C)(OC)[C@@H](O)[C@H](C)O2)[C@H](C)[C@@H](O[C@@H]2O[C@H](C)C[C@H](N(C)C)[C@H]2O)[C@](C)(O)C[C@@H](C)C(=O)[C@H](C)[C@@H](O)[C@]1(C)O [Erythromycin]	–	0.023 (≈ 0.0313 µM)	–
Trimethoprim/Sulfamethoxazole	32	–	–
CO[C@H]1/C=C/O[C@@]2(C)Oc3c(C)c(O)c4c(O)c(c(/C=N/N5CCN(C)CC5)c(O)c4c3C2=O)NC(=O)/C(C)=C\C=C\[C@H](C)[C@H](O)[C@@H](C)[C@@H](O)[C@@H](C)[C@H](OC(C)=O)[C@@H]1C [Rifampicin]	–	0.125 (≈ 0.152 µM)	–
C[C@@H](O)[C@H]1C(=O)N2C(C(=O)O)=C(SCCN=CN)C[C@H]12 [Imipenem]	–	0.094 (≈ 0.314 µM)	–
C[C@H]1[C@H](NC(=O)/C(=N\OC(C)(C)C(=O)O)c2csc(N)n2)C(=O)N1S(=O)(=O)O [Aztreonam]	–	2 (≈ 4.59 µM)	–
CC[C@H]1OC(=O)[C@H](C)[C@@H](O[C@H]2C[C@@](C)(OC)[C@@H](O)[C@H](C)O2)[C@H](C)[C@@H](O[C@@H]2O[C@H](C)C[C@H](N(C)C)[C@H]2O)[C@](C)(OC)C[C@@H](C)C(=O)[C@H](C)[C@@H](O)[C@]1(C)O [Clarithromycin]	–	–	MIC (24 h): 0.16 µg/mL (≈ 0.214 µM)
CCN1CCN(C(=O)N[C@@H](C(=O)N[C@@H]2C(=O)N3[C@@H]2SC(C)(C)[C@@H]3C(=O)O)c2ccccc2)C(=O)C1=O [Piperacillan]	–	–	Susceptible to [1]: 0.19 µg/mL
NCC[C@H](O)C(=O)N[C@@H]1C[C@H](N)[C@@H](O[C@H]2O[C@H](CN)[C@@H](O)[C@H](O)[C@H]2O)[C@H](O)[C@H]1O[C@H]1O[C@H](CO)[C@@H](O)[C@H](N)[C@H]1O [Amikacin]	48	–	–
C[C@H]1COc2c(N3CCN(C)CC3)c(F)cc3c(=O)c(C(=O)O)cn1c23 [Levofloxacin]	12	–	–
Amoxicillin/Clavulanic Acid	–	–	Susceptible to [1]: 0.125 µg/mL
NC[C@H]1O[C@H](O[C@H]2[C@H](O)[C@@H](O[C@H]3O[C@H](CO)[C@@H](O)[C@H](N)[C@H]3O)[C@H](N)C[C@@H]2N)[C@H](N)C[C@@H]1O [Tobramycin]	>512	–	–
